Tested on: MRC5
Experiment: Cytotoxicity in human MRC5 cells
Assay type: cell-based

Compound `N#Cc1cccc(-c2ccc(C(=O)O)o2)c1` has an IC50 greater than 100 µM.

— ChEMBL document CHEMBL4616680, “Shedding X-ray Light on the Role of Magnesium in the Activity of Mycobacterium tuberculosis Salicylate Synthase (MbtI) for Drug Design” (J Med Chem, 2020)
